Experimental findings from paper PMC8708875 (Pharmaceutics, 2021) are described below.

Data set [1] has as its system Erk 1/2 phosphorylation (pErk). The data set is described as follows: Erk phosphorylation by Western blotting in differentiated C2C12 cells. The settings on record: peptides 100 µM, insulin 100 nM, Western blot, three independent experiments. It is filed as cell-based, mouse. On the procedure:
C2C12 cells were used as a well-described model of skeletal muscle to evaluate the effect of peptides in gene expression, cell signaling, and glucose uptake. These cells were kindly provided by Prof. Patricia Brum, School of Physical Education and Prof. Anselmo Moriscot, Biomedical Science Institute, University of São Paulo, São Paulo, Brazil. C2C12 cells were cultured and maintained in high glucose Dulbecco’s modified Eagle’s medium (DMEM; Thermo Fisher Scientific, São Paulo, SP, Brazil) supplemented with 10% fetal bovine serum (FBS), 100 U/mL penicillin, and […] streptomycin in a humidified atmosphere of 5% CO2 at 37 °C. The cells were used in low pass (between passages 2 and 4) for all experiments to maintain the potential for differentiation of cultures. […]
Western blotting experiments were performed to evaluate the expression levels of specific proteins. […] Western blot bands were visualized with Super-Signal West Pico Chemiluminescent substrate (Thermo Scientific) using the ChemiDoc™ MP Imaging System (BioRad, Hercules, CA, USA), and quantified using ImageJ 1.49 software. All results are expressed as the means ± standard error of the mean (SEM). […] Data were statistically analyzed with GraphPad Prism software (GraphPad Software Inc, San Diego, CA, USA). […]

The next data set in a line: in vitro. The settings on record: WT mice liver or kidney crude extracts; fragments sequenced by mass spectrometry after HPLC; data not shown. It is filed as in vitro ADME, mouse. The procedure:
Peptide hydrolyses were analyzed by reverse phase liquid chromatography (HPLC) using a C18 µBond-pak column (4.6 × 250 mm; Millipore Corp.) with a linear gradient of 5–65% acetonitrile in 0.1% TFA for 20 min at a flow rate of 1 mL/min, and absorbance monitored at a wavelength of 214 nm, as previously described. Cleaved peptide bonds were identified by mass spectrometry sequencing after isolating the cleavage fragments manually after HPLC, as previously described (data not shown). Control enzyme assays were conducted using bradykinin ([…]; 50 µM) as a standard substrate.

As for Insulin, in data set [1], the “phosphorylation of Erk (pErk over total Erk)” value is on record as “increased”.
With “LASVSTVLTSKYR [Ric4, intracellular peptide derived from hemoglobin alpha subunit, last 13 C-terminal amino acids]”, the “phosphorylation of Erk (pErk over total Erk)” value in data set [1] is given as “activated”. Moreover, the “initial enzymatic cleavage site” value in the data set “in vitro” is recorded as “Leu8-Thr9 peptide bond”.
